According to ChEMBL document CHEMBL3817828, “Design, synthesis and evaluation of novel tetrahydrothieno[3,2-c]pyridine derivatives as potent smoothened antagonists” (Medchemcomm, 2016):

Experiments:
[1] = Inhibition of Hh receptor (unknown origin) expressed in SAG-stimulated mouse NIH3T3 cells incubated for 24 hrs by Gli-luciferase reporter gene assay; assay type: cell-based; conditions: NIH3T3, 24 h
Protein smoothened = Protein smoothened (Homo sapiens, UniProt Q99835); test: Displacement of BODIPY-cyclopamine from human Smo expressed in HEK293 cells incubated for 3 hrs by fluorescence competitive displacement assay; assay type: cell-based
Chain of Protein smoothened (Q99835 whole entry): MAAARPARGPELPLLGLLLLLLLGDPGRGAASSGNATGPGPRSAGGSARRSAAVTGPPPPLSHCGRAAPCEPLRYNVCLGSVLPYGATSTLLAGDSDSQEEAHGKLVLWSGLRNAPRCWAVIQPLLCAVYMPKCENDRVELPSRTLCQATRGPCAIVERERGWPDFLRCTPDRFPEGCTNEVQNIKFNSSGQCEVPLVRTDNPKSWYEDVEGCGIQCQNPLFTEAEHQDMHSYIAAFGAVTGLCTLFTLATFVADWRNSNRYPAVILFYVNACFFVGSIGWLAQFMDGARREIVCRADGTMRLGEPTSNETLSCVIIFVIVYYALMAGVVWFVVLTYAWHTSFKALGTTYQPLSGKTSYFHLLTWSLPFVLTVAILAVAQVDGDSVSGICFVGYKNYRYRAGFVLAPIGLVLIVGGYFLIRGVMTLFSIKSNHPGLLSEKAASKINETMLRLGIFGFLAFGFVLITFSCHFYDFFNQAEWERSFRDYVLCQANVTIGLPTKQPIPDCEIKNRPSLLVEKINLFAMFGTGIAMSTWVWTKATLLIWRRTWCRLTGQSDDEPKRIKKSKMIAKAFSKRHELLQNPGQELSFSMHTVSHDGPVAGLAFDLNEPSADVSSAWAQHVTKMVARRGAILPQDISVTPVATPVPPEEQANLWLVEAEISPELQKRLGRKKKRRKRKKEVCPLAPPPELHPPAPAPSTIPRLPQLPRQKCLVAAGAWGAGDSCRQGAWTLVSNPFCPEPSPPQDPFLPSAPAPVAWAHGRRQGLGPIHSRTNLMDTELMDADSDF

Structure (SMILES): Cn1c(-c2cccc(N3CCc4sc(C(=O)N5CCN(c6ccccc6F)CC5)cc4C3)c2)nc2ccccc21
- IC50 [1]: 760 nM

Structure (SMILES): Cn1c(-c2cc(N3CCc4sc(C(=O)Nc5cccnc5)cc4C3)ccc2Cl)nc2ccccc21
- IC50 (Protein smoothened): 56 nM
- IC50 [1]: 140 nM

Structure (SMILES): Cn1c(-c2cc(N3CCc4sc(C(=O)N5CCCC5)cc4C3)ccc2Cl)nc2ccccc21
- IC50 (Protein smoothened): 315 nM
- IC50 [1]: 220 nM

Structure (SMILES): Cn1c(-c2cccc(N3CCc4sc(C(=O)N5CCN(c6cccc(Cl)c6)CC5)cc4C3)c2)nc2ccccc21
- IC50 [1]: 380 nM

Structure (SMILES): Cn1c(-c2cccc(N3CCc4sc(C(=O)N5CCN(S(C)(=O)=O)CC5)cc4C3)c2)nc2ccccc21
- IC50 (Protein smoothened): 373 nM
- IC50 [1]: 220 nM

Structure (SMILES): Cn1c(-c2cc(N3CCc4sc(C(=O)N5CCN(c6ncccn6)CC5)cc4C3)ccc2Cl)nc2ccccc21
- IC50 (Protein smoothened): 92 nM
- IC50 [1]: 90 nM

Structure (SMILES): Cn1c(-c2cccc(N3CCc4sc(C(=O)N5CCN(C(c6ccccc6)c6ccccc6)CC5)cc4C3)c2)nc2ccccc21
- IC50 [1]: > 15000 nM

Structure (SMILES): Cn1c(-c2cccc(N3CCc4sc(C(=O)N5CCN(c6ccc(Cl)c(Cl)c6)CC5)cc4C3)c2)nc2ccccc21
- IC50 (Protein smoothened): 456 nM
- IC50 [1]: 270 nM

Structure (SMILES): CS(=O)(=O)c1ccc(C(=O)Nc2ccc(Cl)c(-c3ccccn3)c2)c(Cl)c1 [VISMODEGIB]
- IC50 [1]: 25 nM

Structure (SMILES): Cn1c(-c2cccc(N3CCc4sc(C(=O)N5CCC(O)CC5)cc4C3)c2)nc2ccccc21
- IC50 (Protein smoothened): 431 nM
- IC50 [1]: 280 nM

Structure (SMILES): CC1CCCCN1C(=O)c1cc2c(s1)CCN(c1cccc(-c3nc4ccccc4n3C)c1)C2 (centres undefined)
- IC50 [1]: 330 nM

Structure (SMILES): Cn1c(-c2cccc(N3CCc4sc(C(=O)N5CCCC5)cc4C3)c2)nc2ccccc21
- IC50 (Protein smoothened): 352 nM
- IC50 [1]: 260 nM

Structure (SMILES): Cn1c(-c2cccc(N3CCc4sc(C(=O)Nc5ccc(F)c(F)c5)cc4C3)c2)nc2ccccc21
- IC50 [1]: 270 nM

Structure (SMILES): CN1CCN(C(=O)c2cc3c(s2)CCN(c2cccc(-c4nc5ccccc5n4C)c2)C3)CC1
- IC50 (Protein smoothened): 326 nM
- IC50 [1]: 170 nM

Structure (SMILES): Cn1c(-c2cccc(N3CCc4sc(C(=O)N5CCN(C(=O)c6ccco6)CC5)cc4C3)c2)nc2ccccc21
- IC50 [1]: 490 nM

Structure (SMILES): Cn1c(-c2cccc(N3CCc4sc(C(=O)N5CCN(c6ncccn6)CC5)cc4C3)c2)nc2ccccc21
- IC50 (Protein smoothened): 237 nM
- IC50 [1]: 150 nM

Structure (SMILES): CNC(=O)c1cc2c(s1)CCN(c1cccc(-c3nc4ccccc4n3C)c1)C2
- IC50 [1]: 1410 nM

Structure (SMILES): COc1ccc(N2CCN(C(=O)c3cc4c(s3)CCN(c3cccc(-c5nc6ccccc6n5C)c3)C4)CC2)cc1
- IC50 [1]: 1260 nM

Structure (SMILES): CCN(CC)C(=O)c1cc2c(s1)CCN(c1cccc(-c3nc4ccccc4n3C)c1)C2
- IC50 [1]: 1340 nM

Structure (SMILES): Cn1c(-c2cccc(N3CCc4sc(C(=O)Nc5cccnc5)cc4C3)c2)nc2ccccc21
- IC50 (Protein smoothened): 261 nM
- IC50 [1]: 200 nM

Structure (SMILES): Cn1c(-c2cc(N3CCc4sc(C(=O)N5CCN(S(C)(=O)=O)CC5)cc4C3)ccc2Cl)nc2ccccc21
- IC50 (Protein smoothened): 217 nM
- IC50 [1]: 240 nM

Structure (SMILES): CC(C)CNC(=O)c1cc2c(s1)CCN(c1cccc(-c3nc4ccccc4n3C)c1)C2
- IC50 [1]: 1720 nM

Structure (SMILES): Cn1c(-c2cccc(N3CCc4sc(C(=O)N5CCN(c6ccccn6)CC5)cc4C3)c2)nc2ccccc21
- IC50 [1]: 340 nM

Structure (SMILES): CN1CCN(C(=O)c2cc3c(s2)CCN(c2ccc(Cl)c(-c4nc5ccccc5n4C)c2)C3)CC1
- IC50 (Protein smoothened): 135 nM
- IC50 [1]: 130 nM

Structure (SMILES): Cn1c(-c2cccc(N3CCc4sc(C(=O)Nc5ccc(Br)cc5)cc4C3)c2)nc2ccccc21
- IC50 [1]: 450 nM

Structure (SMILES): Cn1c(-c2cc(N3CCc4sc(C(=O)N5CCN(c6ccc(Cl)c(Cl)c6)CC5)cc4C3)ccc2Cl)nc2ccccc21
- IC50 (Protein smoothened): 213 nM
- IC50 [1]: 160 nM

Structure (SMILES): Cc1ccc(NC(=O)c2cc3c(s2)CCN(c2cccc(-c4nc5ccccc5n4C)c2)C3)cc1Cl
- IC50 [1]: 310 nM

Structure (SMILES): Cn1c(-c2cccc(N3CCc4sc(C(=O)Nc5ccccc5)cc4C3)c2)nc2ccccc21
- IC50 [1]: 850 nM

Structure (SMILES): CN(C)C(=O)c1cc2c(s1)CCN(c1cccc(-c3nc4ccccc4n3C)c1)C2
- IC50 [1]: 1560 nM

Structure (SMILES): Cn1c(-c2cccc(N3CCc4sc(C(=O)N5CCN(c6cccc(C(F)(F)F)c6)CC5)cc4C3)c2)nc2ccccc21
- IC50 [1]: 1760 nM

Structure (SMILES): CC(=O)N1CCN(C(=O)c2cc3c(s2)CCN(c2cccc(-c4nc5ccccc5n4C)c2)C3)CC1
- IC50 [1]: 370 nM

Structure (SMILES): Cn1c(-c2cccc(N3CCc4sc(C(=O)N5CCN(c6ccc(F)cc6)CC5)cc4C3)c2)nc2ccccc21
- IC50 [1]: 320 nM

Structure (SMILES): COc1ccccc1N1CCN(C(=O)c2cc3c(s2)CCN(c2cccc(-c4nc5ccccc5n4C)c2)C3)CC1
- IC50 [1]: 2350 nM

Structure (SMILES): Cn1c(-c2cccc(N3CCc4sc(C(=O)N5CCN(c6ccccc6)CC5)cc4C3)c2)nc2ccccc21
- IC50 [1]: 1320 nM

Structure (SMILES): Cn1c(-c2cccc(N3CCc4sc(C(=O)N5CCOCC5)cc4C3)c2)nc2ccccc21
- IC50 (Protein smoothened): 294 nM
- IC50 [1]: 210 nM

Structure (SMILES): Cn1c(-c2cccc(N3CCc4sc(C(=O)Nc5ccccc5F)cc4C3)c2)nc2ccccc21
- IC50 [1]: 360 nM

Structure (SMILES): Cn1c(-c2cccc(N3CCc4sc(C(=O)Nc5ccc(F)c(Br)c5)cc4C3)c2)nc2ccccc21
- IC50 [1]: 350 nM

Structure (SMILES): Cn1c(-c2cc(N3CCc4sc(C(=O)N5CCOCC5)cc4C3)ccc2Cl)nc2ccccc21
- IC50 (Protein smoothened): 18 nM
- IC50 [1]: 60 nM

Structure (SMILES): CCN1CCN(C(=O)c2cc3c(s2)CCN(c2cccc(-c4nc5ccccc5n4C)c2)C3)CC1
- IC50 [1]: 350 nM

Structure (SMILES): COc1cccc(NC(=O)c2cc3c(s2)CCN(c2cccc(-c4nc5ccccc5n4C)c2)C3)c1
- IC50 [1]: 660 nM

Structure (SMILES): Cn1c(-c2cccc(N3CCc4sc(C(=O)N5CCN(C(=O)OC(C)(C)C)CC5)cc4C3)c2)nc2ccccc21
- IC50 [1]: 2080 nM

Structure (SMILES): Cc1ccc(NC(=O)c2cc3c(s2)CCN(c2cccc(-c4nc5ccccc5n4C)c2)C3)cc1
- IC50 [1]: 1630 nM

Structure (SMILES): Cn1c(-c2cc(N3CCc4sc(C(=O)N5CCC(O)CC5)cc4C3)ccc2Cl)nc2ccccc21
- IC50 (Protein smoothened): 192 nM
- IC50 [1]: 190 nM
